US4814485A, “4-aminobutanoic acid derivatives, process of preparation and use thereof” (Sanofi, priority 1985, dated 1989)

Molecular target: T1, human plasma renin (Homo sapiens, UniProt P00797)
T1 construct: human plasma renin activity; from tissue; host or cells: human plasma
T1 sequence (P00797 67-406): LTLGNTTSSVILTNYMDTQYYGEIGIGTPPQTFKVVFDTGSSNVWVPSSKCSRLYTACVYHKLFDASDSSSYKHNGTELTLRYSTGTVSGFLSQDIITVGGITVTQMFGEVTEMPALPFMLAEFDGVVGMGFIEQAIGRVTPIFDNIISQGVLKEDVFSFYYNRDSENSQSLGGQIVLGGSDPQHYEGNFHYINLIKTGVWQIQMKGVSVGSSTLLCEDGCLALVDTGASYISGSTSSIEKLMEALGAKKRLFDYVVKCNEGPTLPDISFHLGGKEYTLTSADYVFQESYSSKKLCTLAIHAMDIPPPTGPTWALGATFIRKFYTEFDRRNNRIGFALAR
Assay: inhibitory action on the human plasma renin activity
Format: biochemical
Settings: pH=6, method of European patent application No. 104,964, read-out: IC50 (dose of compound under study which causes 50% inhibition of the human plasma renin activity)
Excerpt: The peptide so obtained was studied for determining its inhibitory action on the human plasma renin activity using the method described in European patent application No. 104,964.

IC50: 1000 nM
Substance: BOC-Phe-Nle-APHBA-Ala-Sta-OCH3 [SR 44205]
